# In patent publication EP2945947B1, “INHIBITING THE TRANSIENT RECEPTOR POTENTIAL A1 ION CHANNEL” (Merck Sharp & Dohme Corp., priority 2013, dated 2014):
# Read-outs that look alike come from different tables or passages of the source. Marks after values point to notes of the source that are not given here.
# Legend:
# human TRPA1 = human TRPA1 (Homo sapiens, UniProt O75762); test: Inhibition of the TRPA1 ion channel, whole cell patch configuration (Example 1); type: cell-based; conditions: current activation 10 µM AITC, read-out: Human TRPA1 IC50 Inward Current
# Sequence of human TRPA1 (O75762 whole entry): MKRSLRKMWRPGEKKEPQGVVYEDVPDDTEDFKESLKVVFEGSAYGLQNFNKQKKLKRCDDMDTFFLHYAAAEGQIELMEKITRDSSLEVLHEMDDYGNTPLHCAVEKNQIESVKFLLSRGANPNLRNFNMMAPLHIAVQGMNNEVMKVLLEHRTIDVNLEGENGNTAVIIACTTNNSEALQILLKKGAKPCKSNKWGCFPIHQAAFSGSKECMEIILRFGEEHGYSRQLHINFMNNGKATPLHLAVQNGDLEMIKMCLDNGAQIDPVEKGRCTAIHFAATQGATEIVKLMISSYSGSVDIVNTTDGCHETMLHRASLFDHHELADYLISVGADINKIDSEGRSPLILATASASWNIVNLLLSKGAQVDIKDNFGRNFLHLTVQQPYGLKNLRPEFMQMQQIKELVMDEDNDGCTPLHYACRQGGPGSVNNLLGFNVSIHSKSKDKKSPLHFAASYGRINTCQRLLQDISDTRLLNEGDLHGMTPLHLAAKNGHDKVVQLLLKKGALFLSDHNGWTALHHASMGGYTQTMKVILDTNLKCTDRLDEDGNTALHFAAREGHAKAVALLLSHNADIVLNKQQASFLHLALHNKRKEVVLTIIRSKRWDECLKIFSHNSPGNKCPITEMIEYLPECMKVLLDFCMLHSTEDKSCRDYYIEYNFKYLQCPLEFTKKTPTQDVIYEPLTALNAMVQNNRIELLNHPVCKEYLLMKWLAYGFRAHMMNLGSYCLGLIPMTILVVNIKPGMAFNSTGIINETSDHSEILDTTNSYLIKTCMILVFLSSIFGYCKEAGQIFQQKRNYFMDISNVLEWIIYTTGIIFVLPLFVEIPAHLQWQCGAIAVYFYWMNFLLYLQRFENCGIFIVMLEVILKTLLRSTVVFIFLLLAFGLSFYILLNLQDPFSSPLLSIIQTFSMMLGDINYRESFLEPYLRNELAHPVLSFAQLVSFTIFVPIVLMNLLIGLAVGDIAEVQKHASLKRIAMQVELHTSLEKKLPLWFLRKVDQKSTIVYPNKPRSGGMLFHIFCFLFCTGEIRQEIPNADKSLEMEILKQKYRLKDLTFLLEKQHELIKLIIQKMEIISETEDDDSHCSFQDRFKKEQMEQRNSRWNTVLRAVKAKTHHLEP
# Procedure: Compounds of Formula (Ia) inhibit the TRPA1 channel, as measured using the method of Example 1. […] Data for TRPA1 inhibition and for TRPA1 selectivity was obtained by this method for the indicated compounds of Formula (Ia), with the relevant data included in Tables 1a - f below. All currents were recorded in whole-cell configuration using EPC-9 and EPC-10 amplifiers and Patchmaster software (HEKA). […] The standard pipette solution consisted of 140mM CsAsp, 10 mM EGTA, 10 mM HEPES, 2.27 mM MgCl2, 1.91 mM CaCl2, 4 mM MgATP, and 0.1-0.3 mM Na2GTP, with pH adjusted to 7.2 with CsOH. In addition, a solution containing 145 mM CsCl, 10 mM HEPES, 10 mM EGTA and 1 mM MgCl2 (pH 7.2 adjusted with CsOH) can be used. The standard bath solution contained 150 mM NaCl, 10 mM HEPES, 10 mM glucose, 4.5 mM KCl, 1 mM EGTA, 3 mM MgCl2, with pH adjusted to 7.4 with NaOH. In some instances, 2 mM CaCl2 was added in place of EGTA and the concentration of MgCl2 was reduced to 1 mM.
# Data were collected either by continuous recordings at -60 mV or by applying voltage ramps from a holding potential of 0 mV every 4 s. Continuous recordings were collected at 400 Hz and digitally filtered off-line at 10 Hz for presentation. Voltage ramps were applied from - 100 mV to 100 mV over the course of 400 ms, and data were collected at 10 kHz and filtered at 2.9 kHz. Inward and outward currents were analyzed from the ramps at -80 and 80 mV, respectively. Liquid junction potential correction was not used.
# Solutions were switched using a gravity-fed continuous focal perfusion system. To achieve rapid temperature changes, two temperature control, and perfusion systems were employed simultaneously. For temperatures ≥ 22°C, a Warner Instruments bipolar temperature controller (TC-344B) and inline heater (SHM-8) were used. […] Temperatures were confirmed using a thermistor (Warner Instruments, TA-29), with temperatures at the recorded cell estimated to be within +/- 2°C of those reported.
# The antagonist effects of compounds of Formula (Ia) against human TRPA1 ("hTRPA1") and for some compounds rat TRPA1 ("rTRPA1") in a whole cell patch configuration were evaluated using the in vitro assay described above. The current activation tested was 10 µM AITC, and the tested concentrations ranged from 5 µM and 500 nM. Table 1a (Comparative Compounds)
# rats = test: Rodent formalin pain model (Example 3); type: in vivo; conditions: rat; for Minimal Efficacious Dose of Compound in Formalin Model: IV, statistically significant difference vs vehicle at 0 - 2 min (p≤0.05); for Duration of Pain Behavior: first two minutes after formalin, vehicle 88.6
# Procedure: Compounds of Formula (Ia) are active in rodent models of pain induced by direct activation of the TRPA1 channel with intraplantar injection of the TRPA1 agonist formalin. Compounds of Formula (Ia) were tested in the formalin-induced pain test reported by Abbott et. al. Pain. 1995 Jan;60(1):91-102. Dubuisson et al. describe a method for assessing pain and analgesia in rats. Briefly, dilute formalin (50 µL of 3 % formalin) is injected into the plantar surface of the hind paw. […] The individual responsible for counting the pain behaviors in a particular study is blinded to the treatment groups.
# Table 2 is a data table showing the results from testing compounds of Formula (Ia) in the rodent formalin-induced pain model described in […]. Rats were treated with the compounds of Formula (Ia) at various doses (0.1, 0.3, 1, 1.2, 3, 4, 10, or 30 mg/Kg IV) or with a control composition containing the vehicle (i.e., without a compound of Formula (Ia)). Pain behaviors (flinch, lift, lick, bite) were monitored following intraplantar formalin injection. Referring to Table 2, the minimum effective dose was derived from dose resulting in statistically significant difference in behavior at 0 - 2 min time period as compared with vehicle (p≤0.05).
# [1] = system: Female Sprague Dawley rats; test: Rodent acute tolerability test with liver function tests (Example 5); type: in vivo, rat; set-up: key to Alterations in LFT: (↔) indicates blood levels of markers for potential liver damage within normal range; (↑) indicates blood levels of markers for potential liver damage elevated above normal range; conditions: about 24 hours post dose
# Procedure: Compounds of Formula (Ia) were assessed for acute tolerability in a rodent model at dose levels ranging from 100 - 200 mg/kg based upon the minimum efficacious dose of each compound. Female Sprague Dawley rats were administered up to a 10 mL/kg dose volume of each compound in 0.9% saline at appropriate concentrations as an intravenous bolus via the lateral tail vein. The animals were observed immediately post dose and for up to twenty four hours post dose and clinical observations were recorded. Additionally, approximately twenty four hours post dose animals were euthanized and blood taken for serum chemistry analysis with a focus on liver function tests (LFTs). The maximum tolerated single dose and LFT results are summarized in Table 3, where (↔) indicates blood levels of markers for potential liver damage within normal range and (↑) indicates blood levels of markers for potential liver damage elevated above normal range. Referring to the data in Table 3, LFT blood levels of markers for potential liver damage remained within normal range for the compounds of Formula (Ia), while LFTs were elevated for Comparator Compounds including 5-10 fold elevation above normal for ALT and AST blood levels observed upon administration of Comparative Compound 1. […]
# [2] = Aqueous solubility in buffered solutions, HPLC (Example 2); type: physicochemical; conditions: kinetic from dmso stock, ambient temperature
# sheep = test: Sheep model of experimental allergic asthma, Ascaris suum antigen challenge (Example 6); type: in vivo; conditions: for inhibition of the AHR / inhibition of the EAR / inhibition of the LAR: sheep; for Average Early Airway Response (EAR) / Average Late Airway Response (LAR) / Airway Hyperresponsiveness (AHR): 4 days; for Average Early Airway Response (EAR): average increase in RL 0-4h after challenge; for Average Late Airway Response (LAR): average increase in RL 5-8h after challenge; for Airway Hyperresponsiveness (AHR): ratio of post challenge PC400 to pre challenge PC400
# Procedure: Compounds were tested in the sheep model of experimental asthma reported in Abraham WM, Asthma & Rhinitis, 2000: 1205-1227. All animals were tested for both early and late stage airway responses to inhalation challenge with Ascaris suum antigen.
# The unsedated sheep were restrained in a cart in the prone position with their heads immobilized. After topical anesthesia of the nasal passages with 2% lidocaine solution, a balloon catheter was advanced through one nostril into the lower esophagus. The animals were intubated with a cuffed endotracheal tube through the other nostril. Pleural pressure was estimated with the esophageal balloon catheter. Lateral pressure in the trachea was measured with a sidehole catheter advanced through and positioned distal to the tip of the endotracheal tube. Transpulmonary pressure, the difference between tracheal and pleural pressure, was measured with a differential pressure transducer catheter system. For the measurement of pulmonary resistance (RL), the proximal end of the endotracheal tube was connected to a pneumotachograph. The signals of flow and transpulmonary pressure were recorded on an oscilloscope recorder, which was linked to a computer for on-line calculation of RL from transpulmonary pressure, respiratory volume (obtained by digital integration) and flow. Analysis of 5-10 breaths were used for the determination of RL in cm H2O / L x sec^-1.
# Aerosols of Ascaris suum extract (diluted 20:1 with phosphate buffered saline; 82,000 PNU/ml) were generated using a disposable medical nebulizer (Raindrop^R, Puritan Bennett). The output from the nebulizer was directed into a plastic t-piece, one end of which was connected to the inspiratory port of a Harvard respirator. To better control aerosol delivery, a dosimeter consisting of a solenoid valve and a source of compressed air (20 psi) was activated at the beginning of the inspiratory cycle of the Harvard respirator system for 1 s. The aerosol was delivered at a tidal volume of 500 ml and a rate of 20 breaths per minute. Each sheep was challenged with an equivalent dose of antigen in the control and drug trials. Carbachol aerosols were also generated with this same nebulizer system.
# For the carbachol concentration response curves, measurements of RL were repeated immediately after inhalation of buffer and after each administration of 10 breaths of increasing concentrations of carbachol solution (0.25%, 0.5%, 1.0%, 2.0% and 4.0% w/v). To assess airway responsiveness, the cumulative carbachol dose in breath units (BU) that increased RL 400% over the post-buffer value (i.e. PC 400) was calculated from the dose response curve. One breath unit was defined as one breath of a 1% w/v carbachol solution.
# Compound 5-T was given at doses of 1, 3 and 10 mg/kg given orally once a day for 3 days and on day 4, 2 hours before antigen challenge. A group of sheep also received a vehicle control.
# A pre-challenge (baseline) PC 400 was obtained 1-3 days before the start of dosing. Then on the day of antigen challenge, the sheep received the last dose of Compound 5-T 2h before antigen challenge. Values of lung resistance (RL) were measured at baseline, 1.5 h after drug treatment and, then, serially for 8h after challenge with Ascaris suum antigen. Measurements of RL were obtained 24 h after challenge followed by the 24 h post challenge determination of PC 400. Responses to antigen challenge with drug and/or vehicle treatment were compared to each animal's historical control.
# Two groups of animals (n=3) were used for these studies. Group 1 received the vehicle control and the 1 mg/kg dose. Group 2 received the 3 mg/kg dose and the 10 mg/kg dose. A Repeated Measures Analysis of Variance was used to compare the responses within each group to their historical control. If a significant difference was found, then Tukey's post hoc test was used to determine pair wise differences. […]
# [3] = sodium bicarbonate buffer in water for injection/5% dextrose, pH 9.0, 50 mM sodium bicarbonate, read-out: pH 9.0 aqueous solubility
# [4] = sodium phosphate buffer in water for injection/5% dextrose, pH 7.4, 75 mM sodium phosphate, read-out: pH 7.4 aqueous solubility
smiles,measurement,setting,value
"C[C@@H](C(=O)N(COP(=O)(O)O)c1cncc(-c2cnc(N3CCCC3(C)C)nc2)n1)n1cnc2c1c(=O)n(C)c(=O)n2C [Compound 2-E, (S)-(2-(1,3-dimethyl-2,6-dioxo-1,2,3,6-tetrahydro-7H-purin-7-yl)-N-(6-(2-(2,2-dimethylpyrrolidin-1-yl)pyrimidin-5-yl)pyrazin-2-yl)propanamido)methyl dihydrogen phosphate]",IC50,human TRPA1,> 100 nM
same,Minimal Efficacious Dose of Compound in Formalin Model,rats,3 mg/kg
same,Duration of Pain Behavior,rats; dose 0.3 mg/kg IV,80.4 s
same,Duration of Pain Behavior,rats; dose 1 mg/kg IV,77 s
same,Duration of Pain Behavior,rats; dose 3 mg/kg IV,15.1 s
same,Alterations in LFT,[1]; single IV bolus dose 100 mg/kg,↔
same,LFT: % upper normal range ALT serum levels,[1]; single IV bolus dose 100 mg/kg,<100%/<100%
same,LFT: % upper normal range AST serum levels,[1]; single IV bolus dose 100 mg/kg,<100%/<100%
same,solubility kinetic at 24 h,[2]; [3],> 1000 µg/mL
same,solubility kinetic at 24 h,[2]; [4],> 1000 µg/mL
"C[C@H]1CCCN1c1ncc(-c2cncc(N(COP(=O)(O)O)C(=O)[C@H](C)n3cnc4c3c(=O)n(C)c(=O)n4C)n2)cn1 [Compound 3-J, ((S)-2-(1,3-dimethyl-2,6-dioxo-1,2,3,6-tetrahydro-7H-purin-7-yl)-N-(6-(2-((S)-2-methylpyrrolidin-1-yl)pyrimidin-5-yl)pyrazin-2-yl)propanamido)methyl dihydrogen phosphate]",IC50,human TRPA1,> 100 nM
same,Minimal Efficacious Dose of Compound in Formalin Model,rats,3 mg/kg
same,Duration of Pain Behavior,rats; dose 3 mg/kg IV,39.7 s
same,Duration of Pain Behavior,rats; dose 10 mg/kg IV,1.6 s
same,Alterations in LFT,[1]; single IV bolus dose 130 mg/kg,↔
same,LFT: % upper normal range ALT serum levels,[1]; single IV bolus dose 130 mg/kg,<100%/<100%
same,LFT: % upper normal range AST serum levels,[1]; single IV bolus dose 130 mg/kg,<100%/<100%
same,solubility kinetic at 24 h,[2]; [3],> 1000 µg/mL
same,solubility kinetic at 24 h,[2]; [4],> 1000 µg/mL
"C[C@@H](C(=O)Nc1cncc(-c2cnc(N3CCC[C@H]3C(F)(F)F)nc2)n1)n1cnc2c1c(=O)n(C)c(=O)n2C [Compound 5-T, (S)-2-(1,3-dimethyl-2,6-dioxo-1,2,3,6-tetrahydro-7H-purin-7-yl)-N-(6-(2-((S)-2-(trifluoromethyl)pyrrolidin-1-yl)pyrimidin-5-yl)pyrazin-2-yl)propanamide]",IC50,human TRPA1,< 25 nM
same,inhibition of the AHR,sheep; 1 mg/Kg dose,45%
same,inhibition of the EAR,sheep; 1 mg/Kg dose,no effect on EAR
same,inhibition of the LAR,sheep; 1 mg/Kg dose,48%
same,Average Early Airway Response (EAR),"sheep; 1 mg/Kg orally once a day, Control 1 175 ± 25",171 ± 17
same,Average Late Airway Response (LAR),"sheep; 1 mg/Kg orally once a day, Control 1 113 ± 4",59 ± 1*^+
same,Airway Hyperresponsiveness (AHR),"sheep; 1 mg/Kg orally once a day, Control 1 0.49 ± 0.04",0.71 ± 0.01*^+
same,inhibition of the AHR,sheep; 3 mg/Kg dose,100%
same,inhibition of the EAR,sheep; 3 mg/Kg dose,51%
same,inhibition of the LAR,sheep; 3 mg/Kg dose,78%
same,Average Early Airway Response (EAR),"sheep; 3 mg/Kg orally once a day, Control 2 195 ± 15",95 ± 6
same,Average Late Airway Response (LAR),"sheep; 3 mg/Kg orally once a day, Control 2 107 ± 5",24 ± 1
same,Airway Hyperresponsiveness (AHR),"sheep; 3 mg/Kg orally once a day, Control 2 0.41 ± 0.01",0.92 ± 0.08
same,inhibition of the AHR,sheep; 10 mg/Kg dose,100%
same,inhibition of the EAR,sheep; 10 mg/Kg dose,72%
same,inhibition of the LAR,sheep; 10 mg/Kg dose,79%
same,Average Early Airway Response (EAR),"sheep; 10 mg/Kg orally once a day, Control 2 195 ± 15",55 ± 2*^
same,Average Late Airway Response (LAR),"sheep; 10 mg/Kg orally once a day, Control 2 107 ± 5",22 ± 3
same,Airway Hyperresponsiveness (AHR),"sheep; 10 mg/Kg orally once a day, Control 2 0.41 ± 0.01",1.00 ± 0.14
same,"inhibition of the average early airway response (EAR), compared to Comparative Compound 2",sheep; at the doses tested,improved inhibition
same,inhibition of the average late airway response (LAR) and the airway hyperresponsiveness (AHR),"sheep; doses 1, 3 and 10 mg/kg orally",dose dependent inhibition
same,solubility kinetic at 24 h,[2]; [3],7 µg/mL
same,solubility kinetic at 24 h,[2]; [4],5 µg/mL
